Measurements from patent publication US20250073255A1, “USE OF FA-TYPE LIPID COMPOUNDS IN PREPARATION OF NUCLEIC ACID DELIVERY REAGENT AND RELATED PRODUCT” (BEIJING BAISHIKANG PHARMACEUTICAL TECHNOLOGY (BSJPHARMA) …, priority 2021, published 2025).

Tested on: C57BL/6 male mice
Assay: In vivo delivery study of lipid nucleic acid mixture (oral gavage, RT-qPCR of PGY-sRNA-26 in tissues)
Design: species or system mouse
Details: for overall delivery efficacy: delivering nucleic acids into each tissue and blood tested: 100 μg lipid:10 nmol PGY-sRNA-26, all tissues and blood tested; for oral delivery of single-stranded sRNA nucleic acids into mouse blood / oral delivery of single-stranded sRNA nucleic acids into mouse brain tissue / oral delivery of single-stranded sRNA nucleic acids into mouse femur / oral delivery of single-stranded sRNA nucleic acids into mouse heart tissue / oral delivery of single-stranded sRNA nucleic acids into mouse intestinal tissue / oral delivery of single-stranded sRNA nucleic acids into mouse kidney tissue / oral delivery of single-stranded sRNA nucleic acids into mouse liver tissue / oral delivery of single-stranded sRNA nucleic acids into mouse lung tissue / oral delivery of single-stranded sRNA nucleic acids into mouse pancreatic tissue / oral delivery of single-stranded sRNA nucleic acids into mouse spleen tissue / oral delivery of single-stranded sRNA nucleic acids into mouse stomach tissue: 100 μg lipid:10 nmol PGY-sRNA-26, sampled after 12 hours; for oral delivery of single-stranded sRNA nucleic acids into mouse heart tissue: vs free uptake group; for oral delivery of single-stranded sRNA nucleic acids into mouse intestinal tissue: intestine; for oral delivery of single-stranded sRNA nucleic acids into mouse pancreatic tissue: pancreas
How it was run: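 Stem-loop RT and SYBR qPCR, normalized to U6, measured PGY-sRNA-26 in blood and organs 12 h after gavage. Dosing was 10 nmol sRNA with 100 μg lipid, pre-mixed and heated 15 min at 90 °C, in 12-h-fasted mice, against saline and free-sRNA groups.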

Compound | overall delivery efficacy: delivering nucleic acids into each tissue and blood tested | oral delivery of single-stranded sRNA nucleic acids into mouse blood | oral delivery of single-stranded sRNA nucleic acids into mouse brain tissue | oral delivery of single-stranded sRNA nucleic acids into mouse femur | oral delivery of single-stranded sRNA nucleic acids into mouse heart tissue | oral delivery of single-stranded sRNA nucleic acids into mouse intestinal tissue | oral delivery of single-stranded sRNA nucleic acids into mouse kidney tissue | oral delivery of single-stranded sRNA nucleic acids into mouse liver tissue | oral delivery of single-stranded sRNA nucleic acids into mouse lung tissue | oral delivery of single-stranded sRNA nucleic acids into mouse pancreatic tissue | oral delivery of single-stranded sRNA nucleic acids into mouse spleen tissue | oral delivery of single-stranded sRNA nucleic acids into mouse stomach tissue
CCCCCCCCCCCC(=O)OC/C=C(\C)CC/C=C(\C)CCC=C(C)C [Lipid 802, [(2E,6E)-3,7,11-trimethyldodeca-2,6,10-trienyl]dodecanoate] | best delivery efficacy | can effectively orally deliver | can effectively orally deliver | can effectively orally deliver | can effectively orally deliver | can effectively orally deliver | can effectively orally deliver | can effectively orally deliver | can effectively orally deliver | can effectively orally deliver | can effectively orally deliver | can effectively orally deliver
CCCCC/C=C\C/C=C\C/C=C\C/C=C\CCCC(=O)Nc1ccc(S(N)(=O)=O)cc1 [Lipid 826, (5Z,8Z,11Z,14Z)-N-(4-sulfamoylphenyl)icosa-5,8,11,14-tetraenamide] |  | can effectively orally deliver | can effectively orally deliver | can effectively orally deliver | can effectively orally deliver | can effectively orally deliver | can effectively orally deliver | can effectively orally deliver | can effectively orally deliver | can effectively orally deliver | can effectively orally deliver | can effectively orally deliver
CCCCC/C=C\C/C=C\C/C=C\C/C=C\CCCC(=O)NCCCO [Lipid 808, (5Z,8Z,11Z,14Z)-N-(3-hydroxypropyl)icosa-5,8,11,14-tetraenamide] |  | can effectively orally deliver | can effectively orally deliver | can effectively orally deliver | can effectively orally deliver | can effectively orally deliver | can effectively orally deliver | can effectively orally deliver | can effectively orally deliver | can effectively orally deliver | can effectively orally deliver | can effectively orally deliver
CC/C=C/CCO [Lipid 526] | best delivery efficacy | can effectively orally deliver | can effectively orally deliver | can effectively orally deliver | can effectively orally deliver | can effectively orally deliver | can effectively orally deliver | can effectively orally deliver | can effectively orally deliver |  | can effectively orally deliver | can effectively orally deliver
CCCCCC/C=C\CCCCCCCC(=O)OCCCCCCCCCCCCCCCCCCCCCCC [Lipid 825, tricosyl (Z)-hexadec-9-enoate] |  | can effectively orally deliver | can effectively orally deliver | can effectively orally deliver | can effectively orally deliver | can effectively orally deliver | can effectively orally deliver | can effectively orally deliver | can effectively orally deliver | can effectively orally deliver | can effectively orally deliver | can effectively orally deliver
CCCCCC/C=C\CCCCCCCC(=O)OCCCCCCCCCCCCCCCCCCCCC [Lipid 820, henicosyl (Z)-hexadec-9-enoate] |  | can effectively orally deliver | can effectively orally deliver | can effectively orally deliver | can effectively orally deliver | can effectively orally deliver | can effectively orally deliver | can effectively orally deliver | can effectively orally deliver | can effectively orally deliver | can effectively orally deliver | can effectively orally deliver
COc1cc(CNC(=O)CCCC/C=C/C(C)C)ccc1O [Lipid 537] | best delivery efficacy | can effectively orally deliver | can effectively orally deliver | can effectively orally deliver | can effectively orally deliver | can effectively orally deliver | can effectively orally deliver | can effectively orally deliver | can effectively orally deliver |  | can effectively orally deliver | can effectively orally deliver
CCCCCC/C=C\CCCCCCCC(=O)OCCCCCCCCCCCCCCCCCCC [Lipid 822, nonadecyl (Z)-hexadec-9-enoate] | best delivery efficacy | can effectively orally deliver | can effectively orally deliver | can effectively orally deliver | can effectively orally deliver | can effectively orally deliver | can effectively orally deliver | can effectively orally deliver | can effectively orally deliver | can effectively orally deliver | can effectively orally deliver | can effectively orally deliver
CCCCCCCCCCCCCCCCCC(N)=O [Lipid 601, octadecanamide] | best delivery efficacy | can effectively orally deliver | can effectively orally deliver | can effectively orally deliver | can effectively orally deliver | can effectively orally deliver | can effectively orally deliver | can effectively orally deliver | can effectively orally deliver |  | can effectively orally deliver | can effectively orally deliver
CCCCCCCCCCCCCCC(=O)O [Lipid 605, pentadecanoic acid] |  | can effectively orally deliver |  | can effectively orally deliver |  |  |  |  |  |  |  | can effectively orally deliver
